In experiment [1] the test system is Trypanosoma cruzi. The experiment in a line: Antitrypanosomal activity against bloodstream trypomastigote form of Trypanosoma cruzi NINOA isolated from infected mouse at the peak of parasitemia assessed as reduction in number of live parasites at 5 to 50 ug/ml after 24 hrs. The format is functional, organism-based.
Experiment [2] concerns Trypanosoma cruzi. The experiment in a line: Antitrypanosomal activity against bloodstream trypomastigote form of Trypanosoma cruzi NINOA isolated from infected mouse at the peak of parasitemia assessed as reduction in number of live parasites at 18 to 36 uM after 24 hrs. The format is functional, organism-based.
Experiment [3] has as its system Trypanosoma cruzi. The experiment in a line: Antitrypanosomal activity against bloodstream trypomastigote form of Trypanosoma cruzi NINOA isolated from infected mouse at the peak of parasitemia assessed as reduction in number of live parasites at 5 to 50 ug/ml after 24 hrs.
In experiment [4] the test system is Trypanosoma cruzi. The experiment in a line: Antitrypanosomal activity against bloodstream trypomastigote form of Trypanosoma cruzi NINOA isolated from infected mouse at the peak of parasitemia assessed as reduction in number of live parasites at 178 uM after 24 hrs. Type of experiment: functional, organism-based.
The subject of experiment [5] is Trypanosoma cruzi. The experiment in a line: Antitrypanosomal activity against bloodstream trypomastigote form of Trypanosoma cruzi NINOA isolated from infected mouse at the peak of parasitemia assessed as reduction in number of live parasites at 161 uM after 24 hrs. Type of experiment: functional. Details: scale not given: the % may be the effect or the level left.

Structures are written as SMILES. The source made the active and inactive calls. The calls are words filed in the database; no cut-off is given here.

As for `O=C(c1ccccc1)c1[nH]c(=O)c2ccccc2c1O`, the result in the experiment on Trypanosoma cruzi [1] was inactive.

As to `Nc1cccc(C(=O)c2[nH]c(=O)c3ccccc3c2O)c1`, the outcome in the experiment on Trypanosoma cruzi [2] and in the experiment on Trypanosoma cruzi [3] was Active. Besides, the result in the experiment with Trypanosoma cruzi [4] was inactive.

Take `O=C(c1cccc([N+](=O)[O-])c1)c1[nH]c(=O)c2ccccc2c1O`: in the experiment on Trypanosoma cruzi [5], the Activity amounted to 47%.

Regarding `O=C(Cn1ccnc1[N+](=O)[O-])NCc1ccccc1`, the result in the experiment with Trypanosoma cruzi [3] was Active.

The values above are taken from ChEMBL document CHEMBL2203182, “Identification of benzoylisoquinolines as potential anti-Chagas agents” (2012).
